From patent US11535632B2, “Solid forms of an S1P-receptor modulator” (ESCAPE Bio, Inc., priority 2019, dated 2022) come the findings set out here.

The nature of this series: Competitive slurries of Form B and C in process relevant solvents. It counts as physicochemical. The method, then: Determination of the relative stabilities of Form B and Form C was undertaken to identify which material was more thermodynamically stable in process relevant solvents. As a suspected solvate was isolated from experiments where DMAC was used as a solvent, only DMSO and acetic acid were determined to be appropriate process solvents. Combinations of these solvents with relevant antisolvents were therefore selected for the competitive slurry experiments.
Compound 1 (from Example 2) was dispensed into HPLC vials. To these, 1 ml of selected solvents was subsequently added to give a suspension. Materials were slurried for 72 hours at 90° C., 50° C. or 25° C. with 500 rpm stirring. Material was subsequently isolated by centrifugation and analyzed by XRPD.

With `O=C(O)[C@H]1C[C@@H](N2CCc3oc(-c4ccc(OCc5ccc(Cl)cc5)cc4)nc3C2)C1` [Form B, (1s,3s)-3-(2-(4-((4-chlorobenzyl)oxy)phenyl)-6,7-dihydrooxazolo[4,5-c]pyridin-5(4H)-yl)cyclobutane-1-carboxylic acid], the Relative thermodynamic stability entry reads like this: (acetic acid mixtures and temperatures investigated) “more thermodynamically stable than Form C”; (majority of experimental conditions assessed) “more thermodynamically stable than Form C”.
